The numbers were not newly measured in US11123309B2, “Methods for drug delivery, tumor imaging, and oxidative dehydrogenation using hierarchical ZSM-5 complex” (Imam Abdulrahman Bin Faisal University, priority 2018, dated 2021), which cites them from elsewhere.

Regarding `Oc1ccc(/C=C/c2cc(O)cc(O)c2)cc1` [resveratrol, 3,5,4′ trihydroxy trans stilbene], the solubility in water is 50 microgram per ml.
